“Also recorded” adds a separate entry of the source.
Experiments:
[1] = test system: MDA-MB-468 Human Breast Carcinoma; settings: oral administration, 10-20 mg/kg, QDx15, 10 day-on-2 day-off-5 day on
Protocol: Treatment of each animal was based on individual body weight. Treated animals were checked daily for treatment related toxicity/mortality. Each group of animals was weighed before the initiation of treatment (Wt1) and then again following the last treatment dose (Wt2). The difference in body weight (Wt2−Wt1) provides a measure of treatment-related toxicity.
Statistical evaluations of data were performed using Gehan's generalized Wilcoxon test. Statistical significance was declared at P<0.05.

[2] = test system: MDA-MB-157 Human Breast Carcinoma; assay: Human tumor xenograft model in mice, MDA-MB-157; format: in vivo; settings: oral administration, 10-20 mg/kg, QDx15, 10 day-on-2 day-off-5 day on
Protocol: (§1) Human Tumor Xenograft Models in Mice
(§2) Mice were fed food and water ad libitum.
(§3) Tumor growth inhibition is calculated as follows: […]
(§4) When death occurred, the day of death was recorded.

[3] = in vitro; settings: human, microsomes, pH 7.4
[4] = test system: human tumor xenografts; assay: Human tumor xenograft models in mice (general statement); format: in vivo; settings: orally administered (PO)
Protocol: Mice were fed food and water ad libitum. […] [table] […] When death occurred, the day of death was recorded.

[5] = biological target: human Notch 3 (Homo sapiens, UniProt Q9UM47); assay: Notch-CBF1 Transactivation Assay (Notch 3); format: cell-based; settings: HeLa cells co-transfected with truncated Notch 3 and CBF1 luciferase reporter; 18 hours incubation
Sequence of human Notch 3 (Q9UM47 40-2321 limits assumed): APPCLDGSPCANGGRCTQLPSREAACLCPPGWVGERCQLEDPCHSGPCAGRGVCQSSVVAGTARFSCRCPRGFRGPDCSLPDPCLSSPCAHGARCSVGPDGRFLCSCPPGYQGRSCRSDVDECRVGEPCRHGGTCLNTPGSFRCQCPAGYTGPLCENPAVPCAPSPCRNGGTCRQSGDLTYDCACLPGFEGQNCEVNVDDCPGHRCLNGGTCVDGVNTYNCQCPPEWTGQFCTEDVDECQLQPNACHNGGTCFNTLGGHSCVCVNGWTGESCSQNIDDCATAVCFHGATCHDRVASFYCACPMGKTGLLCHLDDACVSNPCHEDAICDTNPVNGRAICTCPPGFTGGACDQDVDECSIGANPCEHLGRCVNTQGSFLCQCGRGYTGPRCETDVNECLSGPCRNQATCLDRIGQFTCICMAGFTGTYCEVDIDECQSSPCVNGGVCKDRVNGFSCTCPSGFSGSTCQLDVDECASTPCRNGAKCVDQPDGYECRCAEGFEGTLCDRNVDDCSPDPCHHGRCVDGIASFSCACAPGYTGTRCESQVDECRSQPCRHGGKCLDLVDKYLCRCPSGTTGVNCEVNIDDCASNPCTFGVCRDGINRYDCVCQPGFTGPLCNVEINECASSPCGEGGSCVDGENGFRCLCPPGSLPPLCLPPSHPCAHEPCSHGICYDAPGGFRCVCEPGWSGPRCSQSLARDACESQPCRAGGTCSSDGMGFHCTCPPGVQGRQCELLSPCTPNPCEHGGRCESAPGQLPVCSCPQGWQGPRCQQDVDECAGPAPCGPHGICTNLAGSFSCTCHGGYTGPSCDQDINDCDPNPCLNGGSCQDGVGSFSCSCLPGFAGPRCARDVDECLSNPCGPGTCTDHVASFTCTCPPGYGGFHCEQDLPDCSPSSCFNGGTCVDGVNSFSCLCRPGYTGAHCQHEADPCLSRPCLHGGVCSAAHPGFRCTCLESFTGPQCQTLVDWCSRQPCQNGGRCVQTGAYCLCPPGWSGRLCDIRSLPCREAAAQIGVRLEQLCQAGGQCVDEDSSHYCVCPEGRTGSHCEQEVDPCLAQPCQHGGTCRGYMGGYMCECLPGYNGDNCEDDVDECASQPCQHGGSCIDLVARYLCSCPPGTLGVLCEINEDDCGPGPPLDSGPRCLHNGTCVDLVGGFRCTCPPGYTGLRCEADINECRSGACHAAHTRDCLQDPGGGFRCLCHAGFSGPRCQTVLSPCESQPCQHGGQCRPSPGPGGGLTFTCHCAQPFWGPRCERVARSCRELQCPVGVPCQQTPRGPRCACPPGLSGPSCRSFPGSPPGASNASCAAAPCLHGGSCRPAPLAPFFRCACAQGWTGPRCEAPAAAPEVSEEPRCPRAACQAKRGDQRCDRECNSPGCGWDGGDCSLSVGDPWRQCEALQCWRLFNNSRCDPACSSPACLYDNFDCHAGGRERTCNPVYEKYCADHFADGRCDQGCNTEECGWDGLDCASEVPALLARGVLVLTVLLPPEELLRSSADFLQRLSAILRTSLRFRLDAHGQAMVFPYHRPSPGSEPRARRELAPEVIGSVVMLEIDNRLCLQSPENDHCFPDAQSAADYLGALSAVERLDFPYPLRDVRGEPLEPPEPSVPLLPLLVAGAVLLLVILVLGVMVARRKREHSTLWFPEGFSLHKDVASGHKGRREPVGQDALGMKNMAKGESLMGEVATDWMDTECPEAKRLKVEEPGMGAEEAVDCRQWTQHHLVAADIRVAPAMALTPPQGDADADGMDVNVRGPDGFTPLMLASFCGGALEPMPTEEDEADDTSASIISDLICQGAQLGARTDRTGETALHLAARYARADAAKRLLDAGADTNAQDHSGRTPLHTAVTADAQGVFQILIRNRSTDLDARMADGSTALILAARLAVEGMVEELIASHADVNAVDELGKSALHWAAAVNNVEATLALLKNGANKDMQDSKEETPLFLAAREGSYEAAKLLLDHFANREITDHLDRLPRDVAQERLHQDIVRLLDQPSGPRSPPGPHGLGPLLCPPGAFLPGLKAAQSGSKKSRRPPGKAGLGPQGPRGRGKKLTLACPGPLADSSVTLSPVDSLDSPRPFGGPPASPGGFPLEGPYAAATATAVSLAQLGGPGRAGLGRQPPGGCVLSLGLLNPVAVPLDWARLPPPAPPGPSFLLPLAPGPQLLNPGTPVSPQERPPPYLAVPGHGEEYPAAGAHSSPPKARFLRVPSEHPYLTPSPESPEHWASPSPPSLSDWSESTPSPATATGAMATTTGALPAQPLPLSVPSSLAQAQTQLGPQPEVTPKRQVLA
Description: Notch-CBF1 Transactivation Assay
The Notch-CBF1 (C-promoter binding factor I) cell based transactivation assay is based on the ability of the released Notch intracellular domain fragments (NICDs) to function as transcription factors in conjunction with CBF1 and other nuclear factors. Luciferase assays were used to measure the antagonism of Notch-CBF1 transcriptional activity. HeLa cervical cancer cells are transiently co-transfected with pCDNA3.1/Hygro plasmids containing truncated Notch 1, Notch 2, Notch 3, or Notch 4 receptors and a PGL3 luciferase reporter vector containing 4 copies of CBF1 binding site. The cells were then tested for Notch-CBF1 activity in the absence or presence of test compounds. HeLa cells, maintained in DMEM (high glucose with HEPES), 1× glutamine/penicillin/streptomycin and 10% Fetal Bovine serum, were transiently transfected in a T175 Flask (4.5×10^6 cells/flask) using the Monster Transfection Kit (Minis #MIR2906) according to manufacturers specifications. Table 9 denotes respective DNA quantity for the transfections.
Assay media (5 μL) containing test compounds in final concentrations ranging from 5 μM to 8.4×10^−5 μM (3 fold serial dilutions) were added to the cells and the cell plates were then incubated for 18 hours at 37° C. and 5% CO2. Control wells contained DMSO vehicle (total counts) or 0.5 μM of an in-house small molecule inhibitor (background counts). Duplicates were used for each sample. Luciferase activity was measured after a 20-minute incubation with 50 μl STEADY-GLO® luciferase reagents according to manufacturer's specifications (Promega, Cat. #E2550) and analyzed by Envision plate reader (PerkinElmer, Boston, Mass.).
The antagonist effect of compounds was expressed as 100×[1−(average sample-average background)/(average total−average background)] where sample is the luciferase activity in the presence of test compound, background is equal to the luciferase activity in the presence of the small molecule inhibitor control and the total is signal induced in DMSO wells.

[6] = test system: TALL1 Human T-cell acute lymphoblastic leukemia; assay: Human tumor xenograft model in mice, TALL1; format: in vivo; settings: oral administration, 10-20 mg/kg, QDx10; LCK = Log Cell Kill
Protocol: as §1, §2, §3, §4

Cc1cccc2c1NC(=O)[C@@H](NC(=O)[C@H](CCC(F)(F)F)[C@H](CCC(F)(F)F)C(N)=O)N=C2c1cccc(F)c1 [Example 1, (2R,3S)—N-((3S)-5-(3-Fluorophenyl)-9-methyl-2-oxo-2,3-dihydro-1H-1,4-benzodiazepin-3-yl)-2,3-bis(3,3,3-trifluoropropyl)succinamide]
Antitumor Activity MDA-MB-468 (% TGI) [1]: 98%
Antitumor Activity MDA-MB-157 (% TGI) [2]: 91%
half-life at 0.5 µM [3]: 1.72 h
antitumor activity in human tumor xenografts implanted in mice [4]: exhibited antitumor activity; also recorded: showed antitumor activity
IC50 [5]: 8.5 nM
Antitumor Activity TALL1 (LCK) [6]: >4.3
